Reference: patent US6043275A, “3,7-dithiaprostanoic acid derivative” (Ono Pharmaceutical Co., Ltd., priority 1998, dated 2000)

Columns and labels:
mouse EP4 = target: T1, mouse EP4 (Mus musculus, UniProt P32240); assay: Binding assay using cell expressing the prostanoid receptor subtypes (EP4); conditions: more polar isomer; membrane fraction of CHO cell expressing mouse EP4; [3H]-PGE2 2.5 nM; 1 hour, room temperature; pH 6.0; read-out: dissociation constant Ki (μM) EP4
T1 construct: expressed in transfected cells; host or cells: CHO cells (membrane fraction)
T1 sequence (P32240 whole entry): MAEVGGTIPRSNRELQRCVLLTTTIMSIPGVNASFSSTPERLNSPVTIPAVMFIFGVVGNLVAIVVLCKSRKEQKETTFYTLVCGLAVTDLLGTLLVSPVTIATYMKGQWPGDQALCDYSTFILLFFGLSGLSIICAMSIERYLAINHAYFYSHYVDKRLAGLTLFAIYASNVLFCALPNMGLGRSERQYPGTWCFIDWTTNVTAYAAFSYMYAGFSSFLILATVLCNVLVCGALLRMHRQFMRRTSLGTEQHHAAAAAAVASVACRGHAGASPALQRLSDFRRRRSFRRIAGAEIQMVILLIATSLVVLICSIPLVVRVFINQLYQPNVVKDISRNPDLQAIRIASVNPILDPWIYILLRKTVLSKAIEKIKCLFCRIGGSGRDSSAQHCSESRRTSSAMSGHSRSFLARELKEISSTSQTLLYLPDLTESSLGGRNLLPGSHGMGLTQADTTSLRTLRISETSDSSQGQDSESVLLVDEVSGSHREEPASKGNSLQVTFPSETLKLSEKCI
Method: For example, in a standard laboratory test, such effects of the compound of the present invention were confirmed by binding assay using cell expressing the prostanoid receptor subtypes. (i) Binding assay using cell expressing the prostanoid receptor subtypes The preparation of membrane fraction was carried out according to the method of Sugimoto et al [J. Biol. […] The standard assay mixture containing membrane fraction (0.5 mg/ml), [^3 H]-PGE2 in a final volume of 200 μl was incubated for 1 hour at room temperature. The reaction was terminated by addition of 3 ml of ice-cold buffer. The mixture was rapidly filtered through a glass filter (GF/B). The radioactivity associated with the filter was measured by liquid scintillation counter. Kd and Bmax values were determined from Scatchard plots [Ann. N.Y. Acad. Sci., 51, 660 (1949)]. Non-specific binding was calculated as the amount bond in the presence of an excess (2.5 μM) of unlabeled PGE2. In the experiment for competition of specific [^3 H]-PGE2 binding by the compounds of the present invention, [^3 H]-PGE2 was added at a concentration of 2.5 nM and the compound of the present invention was added at a various concentration. The following buffer was used in all reactions. Buffer: 10 mM potassium phosphate (pH 6.0), 1 mM EDTA, 10 mM MgCl2, 0.1 M NaCl The dissociation constant (Ki) of each compound was calculated by the following equation.

mouse EP3 α = target: T2, mouse EP3 α (Mus musculus, UniProt P30557); assay: Binding assay using cell expressing the prostanoid receptor subtypes (EP3α); conditions: more polar isomer; membrane fraction of CHO cell expressing mouse EP3α; [3H]-PGE2 2.5 nM; 1 hour, room temperature; pH 6.0; read-out: dissociation constant Ki (μM) EP3α
T2 construct: expressed in transfected cells; host or cells: CHO cells (membrane fraction)
T2 sequence (P30557 1-365): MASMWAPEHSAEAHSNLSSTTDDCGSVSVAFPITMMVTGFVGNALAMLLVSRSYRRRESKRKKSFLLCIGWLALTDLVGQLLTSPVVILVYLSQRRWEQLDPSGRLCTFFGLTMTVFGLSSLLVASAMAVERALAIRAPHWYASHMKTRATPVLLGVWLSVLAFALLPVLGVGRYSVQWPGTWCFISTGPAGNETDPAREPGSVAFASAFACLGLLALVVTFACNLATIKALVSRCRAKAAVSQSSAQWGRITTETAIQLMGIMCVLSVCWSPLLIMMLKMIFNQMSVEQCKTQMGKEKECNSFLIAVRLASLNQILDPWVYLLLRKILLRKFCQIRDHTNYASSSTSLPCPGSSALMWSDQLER
Method: For example, in a standard laboratory test, such effects of the compound of the present invention were confirmed by binding assay using cell expressing the prostanoid receptor subtypes. (i) Binding assay using cell expressing the prostanoid receptor subtypes
The preparation of membrane fraction was carried out according to the method of Sugimoto et al [J. Biol. Chem. 267, 6463-6466 (1 992)], using CHO cell expressing prostanoid receptor subtype (mouse EP3 α, EP4).
The standard assay mixture containing membrane fraction (0.5 mg/ml), [^3 H]-PGE2 in a final volume of 200 μl was incubated for 1 hour at room temperature. The reaction was terminated by addition of 3 ml of ice-cold buffer. The mixture was rapidly filtered through a glass filter (GF/B). The radioactivity associated with the filter was measured by liquid scintillation counter.
Kd and Bmax values were determined from Scatchard plots [Ann. N.Y. Acad. Sci., 51, 660 (1949)]. Non-specific binding was calculated as the amount bond in the presence of an excess (2.5 μM) of unlabeled PGE2. In the experiment for competition of specific [^3 H]-PGE2 binding by the compounds of the present invention, [^3 H]-PGE2 was added at a concentration of 2.5 nM and the compound of the present invention was added at a various concentration.
The following buffer was used in all reactions. Buffer: 10 mM potassium phosphate (pH 6.0), 1 mM EDTA, 10 mM MgCl2, 0.1 M NaCl
The dissociation constant (Ki) of each compound was calculated by the following equation.

Row | SMILES | Ki (mouse EP4) [µM] | Ki (mouse EP3 α) [µM]
1 | O=C(O)CSCCCS[C@H]1C(=O)C[C@@H](O)[C@@H]1/C=C/C(O)Cc1cccc(COC2CCCCC2)c1 (single isomer, unassigned) [Example 2(mmm), 11 α, 15-dihydroxy-9-oxo-16-(3-cyclohexyloxymethylphenyl)-17,18,19,20-tetranor-3,7-dithiaprost-13E-enoic acid] | 0.04 | > 10
2 | COc1cccc(CC(O)/C=C/[C@H]2[C@H](O)CC(=O)[C@@H]2SCCCSCC(=O)O)c1 (single isomer, unassigned) [Example 2(f), 11 α, 15-dihydroxy-9-oxo-16-(3-methoxyphenyl)-17,18,19,20-tetranor-3,7-dithiaprost-13E-enoic acid] | 0.0099 | 0.51
3 | COc1ccc(CC(O)/C=C/[C@H]2[C@H](O)CC(=O)[C@@H]2SCCCSCC(=O)O)cc1Cl (single isomer, unassigned) [Example 2(l), 11 α, 15-dihydroxy-9-oxo-16-(4-methoxy-3-chlorophenyl)-17,18,19,20-tetranor-3,7-dithiaprost-13E-enoic acid] | 0.011 | 2.2
4 | O=C(O)CSCCCS[C@H]1C(=O)C[C@@H](O)[C@@H]1/C=C/C(O)Cc1cccc(CCF)c1 (single isomer, unassigned) [Example 2(tt), 11 α, 15-dihydroxy-9-oxo-16-[3-(2-fluoroethyl)phenyl]-17,18,19,20-tetranor-3,7-dithiaprost-13E-enoic acid] | 0.0065 | 0.9
5 | COCc1cccc(C[C@H](O)/C=C/[C@H]2[C@H](O)CC(=O)[C@@H]2SCCCSCC(=O)O)c1 [Example 2, 11 α, 15 α-dihydroxy-9-oxo-16-(3-methoxymethylphenyl)-17,18,19,20-tetranor-3,7-dithiaprost-13E-enoic acid] | 0.0097 | 1.2

Stronger by Ki (mouse EP4), values ahead:

Row | Ki (mouse EP4) [µM] | Ki (mouse EP3 α) [µM] | SMILES
6 | 0.0014 | 6.2 | C=CCOCc1cccc(CC(O)/C=C/[C@H]2[C@H](O)CC(=O)[C@@H]2SCCCSCC(=O)O)c1 (single isomer, unassigned) [Example 2(lll), 11 α, 15-dihydroxy-9-oxo-16-[3-(2-propenyloxymethyl)phenyl]-17,18,19,20-tetranor-3,7-dithiaprost-13E-enoic acid]
7 | 0.0042 | 1.9 | O=C(O)CSCCCS[C@H]1C(=O)C[C@@H](O)[C@@H]1/C=C/C(O)Cc1cccc(COc2ccccc2)c1 (single isomer, unassigned) [Example 2(rr), 11 α, 15-dihydroxy-9-oxo-16-(3-phenyloxymethylphenyl)-17,18,19,20-tetranor-3,7-dithiaprost-13E-enoic acid]
8 | 0.001 | 0.97 | O=C(O)CSCCCS[C@H]1C(=O)C[C@@H](O)[C@@H]1/C=C/C(O)Cc1cccc(-c2ccccc2)c1 (single isomer, unassigned) [Example 2(r), 11 α, 15-dihydroxy-9-oxo-16-(biphenyl-3-yl)-17,18,19,20-tetranor-3,7-dithiaprost-13E-enoic acid]
9 | 0.0028 | 0.25 | O=C(O)CSCCCS[C@H]1C(=O)C[C@@H](O)[C@@H]1/C=C/C(O)Cc1cccc(-c2ccco2)c1 (single isomer, unassigned) [Example 2(ii), 11 α, 15-dihydroxy-9-oxo-16-[3-(2-furyl)phenyl]-17,18,19,20-tetranor-3,7-dithiaprost-13E-enoic acid]
10 | 0.0003 | 0.23 | O=C(O)CSCCCS[C@H]1C(=O)C[C@@H](O)[C@@H]1/C=C/C(O)Cc1cccc(C#Cc2ccccc2)c1 (single isomer, unassigned) [Example 2(bbb), 11 α, 15-dihydroxy-9-oxo-16-(3-phenylethynylphenyl)-17,18,19,20-tetranor-3,7-dithiaprost-13E-enoic acid]
